Assay results reported in ChEMBL document CHEMBL5537151, “Design, synthesis and bioactivity evaluation of novel fusion peptides and their CPT conjugates inducing effective anti-tumor responses on HER2 positive tumors” (Eur J Med Chem, 2024).
Peptide text beside a SMILES is read from it. * marks the point of attachment. X2 = CCC1(OC(=O)CCCCCN2C(=O)CC(*)C2=O)C(=O)OCc2c1cc1n(c2=O)Cc2cc3ccccc3nc2-1; X1 = CCC1(C(=O)OCCS*)C(=O)OCc2c1cc1n(c2=O)Cc2cc3ccccc3nc2-1; X5 = CCC1(OC(=O)CCS*)C(=O)OCc2c1cc1n(c2=O)Cc2cc3ccccc3nc2-1

What was measured:
MDA-MB-231 = assay: cells; settings: Homo sapiens, MDA-MB-231, 48 h
Description: Cytotoxicity against HER-negative human MDA-MB-231 cells incubated for 48 hrs by CCK-8 assay

[1] = Cytotoxicity against HER-negative human MCF-10A cells incubated for 48 hrs by CCK-8 assay; assay type: toxicity, cell-based
SK-BR-3 = assay: cells; settings: Homo sapiens, SK-BR-3, 48 h
Description: Cytotoxicity against HER-positive human SK-BR-3 cells incubated for 48 hrs by CCK-8 assay

NCI-N87 = assay: cells; settings: Homo sapiens, NCI-N87, 48 h
Description: Cytotoxicity against HER-positive human NCI-N87 cells incubated for 48 hrs by CCK-8 assay

SK-OV-3 = assay: cells; settings: Homo sapiens, SK-OV-3, 48 h
Description: Cytotoxicity against HER-positive human SK-OV-3 cells incubated for 48 hrs by CCK-8 assay

IC50 (MDA-MB-231) [µM] | IC50 (SK-BR-3) [µM] | IC50 (NCI-N87) [µM] | IC50 (SK-OV-3) [µM] | SMILES | IC50 at 48 h [1] [µM]
28.2 | 15.7 | 20.1 | > 50 | CC[C@H](C)[C@H](NC(=O)[C@@H]1CCCN1C(=O)[C@@H](NC(=O)[C@H](C)N)C(C)C)C(=O)N[C@@H](C)C(=O)N[C@@H](CCC(N)=O)C(=O)N[C@@H](CCCCN)C(=O)N[C@@H](CSC1CC(=O)N(CCCCCC(=O)OC2(CC)C(=O)OCc3c2cc2n(c3=O)Cc3cc4ccccc4nc3-2)C1=O)C(=O)NCC(=O)N[C@@H](Cc1ccccc1)C(=O)N[C@@H](CC(C)C)C(=O)NCC(=O)N[C@@H](CC(N)=O)C(=O)N1CCC[C@H]1C(=O)N[C@@H](CC(N)=O)C(=O)N[C@@H](Cc1c[nH]c2ccccc12)C(=O)NCC(=O)N[C@@H](CCCNC(=N)N)C(=O)N[C@@H](CO)C(=O)N[C@@H](Cc1c[nH]c2ccccc12)C(=O)N[C@@H](Cc1ccc(O)cc1)C(=O)N[C@@H](CC(N)=O)C(=O)N[C@@H](CCC(N)=O)C(=O)N[C@@H](CCCNC(=N)N)C(=O)N[C@@H](Cc1ccccc1)C(=O)N[C@@H](CCCCN)C(N)=O (stereo not given in full) (H-AVPIAQKC(X2)GFLGNPNWGRSWYNQRFK-NH2) | > 50
16.2 | 1.78 | 6.53 | 5.81 | CC[C@H](C)[C@H](NC(=O)[C@@H]1CCCN1C(=O)[C@@H](NC(=O)[C@H](C)N)C(C)C)C(=O)N[C@@H](C)C(=O)N[C@@H](CCC(N)=O)C(=O)N[C@@H](CCCCN)C(=O)N[C@@H](CSSCCC(=O)OC1(CC)C(=O)OCc2c1cc1n(c2=O)Cc2cc3ccccc3nc2-1)C(=O)NCC(=O)N[C@@H](Cc1ccccc1)C(=O)N[C@@H](CC(C)C)C(=O)NCC(=O)N[C@@H](CC(N)=O)C(=O)N1CCC[C@H]1C(=O)N[C@@H](CC(N)=O)C(=O)N[C@@H](Cc1c[nH]c2ccccc12)C(=O)NCC(=O)N[C@@H](CCCNC(=N)N)C(=O)N[C@@H](CO)C(=O)N[C@@H](Cc1c[nH]c2ccccc12)C(=O)N[C@@H](Cc1ccc(O)cc1)C(=O)N[C@@H](CC(N)=O)C(=O)N[C@@H](CCC(N)=O)C(=O)N[C@@H](CCCNC(=N)N)C(=O)N[C@@H](Cc1ccccc1)C(=O)N[C@@H](CCCCN)C(N)=O (stereo not given in full) (H-AVPIAQKC(X5)GFLGNPNWGRSWYNQRFK-NH2) | 22.1
10.6 | 2.59 | 5.93 | 8.24 | CC[C@H](C)[C@H](NC(=O)[C@@H]1CCCN1C(=O)[C@@H](NC(=O)[C@H](C)N)C(C)C)C(=O)N[C@@H](C)C(=O)N[C@@H](CCC(N)=O)C(=O)N[C@@H](CCCCN)C(=O)NCC(=O)N[C@@H](Cc1ccccc1)C(=O)N[C@@H](CC(C)C)C(=O)NCC(=O)N[C@@H](CSSCCOC(=O)C1(CC)C(=O)OCc2c1cc1n(c2=O)Cc2cc3ccccc3nc2-1)C(=O)N[C@@H](CC(N)=O)C(=O)N1CCC[C@H]1C(=O)N[C@@H](CC(N)=O)C(=O)N[C@@H](Cc1c[nH]c2ccccc12)C(=O)NCC(=O)N[C@@H](CCCNC(=N)N)C(=O)N[C@@H](CO)C(=O)N[C@@H](Cc1c[nH]c2ccccc12)C(=O)N[C@@H](Cc1ccc(O)cc1)C(=O)N[C@@H](CC(N)=O)C(=O)N[C@@H](CCC(N)=O)C(=O)N[C@@H](CCCNC(=N)N)C(=O)N[C@@H](Cc1ccccc1)C(=O)N[C@@H](CCCCN)C(N)=O (stereo not given in full) (H-AVPIAQKGFLGC(X1)NPNWGRSWYNQRFK-NH2) | 15.1
30.6 | 18.3 | 25.3 | > 50 | CC[C@H](C)[C@H](NC(=O)[C@@H]1CCCN1C(=O)[C@@H](NC(=O)[C@H](C)N)C(C)C)C(=O)N[C@@H](C)C(=O)N[C@@H](CCC(N)=O)C(=O)N[C@@H](CCCCN)C(=O)NCC(=O)N[C@@H](Cc1ccccc1)C(=O)N[C@@H](CC(C)C)C(=O)NCC(=O)N[C@@H](CSC1CC(=O)N(CCCCCC(=O)OC2(CC)C(=O)OCc3c2cc2n(c3=O)Cc3cc4ccccc4nc3-2)C1=O)C(=O)N[C@@H](CC(N)=O)C(=O)N1CCC[C@H]1C(=O)N[C@@H](CC(N)=O)C(=O)N[C@@H](Cc1c[nH]c2ccccc12)C(=O)NCC(=O)N[C@@H](CCCNC(=N)N)C(=O)N[C@@H](CO)C(=O)N[C@@H](Cc1c[nH]c2ccccc12)C(=O)N[C@@H](Cc1ccc(O)cc1)C(=O)N[C@@H](CC(N)=O)C(=O)N[C@@H](CCC(N)=O)C(=O)N[C@@H](CCCNC(=N)N)C(=O)N[C@@H](Cc1ccccc1)C(=O)N[C@@H](CCCCN)C(N)=O (stereo not given in full) (H-AVPIAQKGFLGC(X2)NPNWGRSWYNQRFK-NH2) | > 50
